This note sets out measurements from US20190195897A1, “GLYCOSYLATED METABOLITES” (UNIVERSITEIT LEIDEN, priority 2015, published 2019).

The test system of one assay is type 1 GD patients. The experiment in a line: Plasma GlcChol in treated type 1 GD patients. It is filed as in vivo, human. As to conditions: plasma specimens of type 1 GD patients. The method, then: FIG. 6C: Reduction in plasma GlcChol following Eliglustat treatment.
GlcChol levels in plasma of untreated symptomatic type 1 GD patients was determined as well as in NPC patients, carriers and healthy controls. […] The abnormalities are more pronounced when plasma GlcChol is related to Chol (FIG. 6B).
For quantitative analysis of GlcChol in samples of plasma, we developed a LC-MS/MS method using the MRM mode of the transitions mentioned above. Firstly, GlcChol was extracted from plasma from a healthy individual according the method of Bligh and Dyer (28) with a few modifications. 20 μL of plasma was pipetted in an Eppendorf tube (2 mL) and 20 μL of an internal standard solution, containing 0.1 pmol/μL of ^13C6-β-GlcChol in methanol, was added, followed by addition of 280 μL methanol and 150 μL of chloroform. After brief mixing, the sample was left at room temperature for 30 min, mixed occasionally and centrifuged for 10 min at 15700×g to spin down precipitated protein. The supernatant was transferred to an Eppendorf tube and 150 μL chloroform and 250 μL water were added to induce separation of phases. After centrifugation (5 min at 15700×g) the lower, hydrophobic phase was transferred to a clean Eppendorf tube and the upper phase was washed. by addition of 300 μL of chloroform. Lower phases were pooled and taken to dryness at 35° C. under a nitrogen stream. […]

The test system of the next assay is COS7 cells. The experiment in a line: GlcChol in cultured COS7 cells incubated with inhibitors of GBA2 and GBA. To be noted: for increased cellular GlcChol level in cells with overexpressed GCS: COS7 cells with overexpressed GCS, 2 days with inhibitor. It is filed as cell-based. The method, then:
FIG. 4A: GlcChol (nmol/g protein) in COS cells without overexpression of enzymes (control), overexpressed GBA2, GCS and both (GBA2+GCS). Cells were incubated for 2 days with indicated inhibitors of GBA2 (AMP-DNM) and GBA (CBE).
The GlcChol content of cultured COS7 cells and factors influencing this was determined. First the impact of overexpressed GBA2 and GCS was studied.
COS-7 cells were cultured in Iscove's modified Dulbecco's medium (Life Technologies, Carlsbad, Calif., USA) supplemented with 5% fetal bovine serum (FBS; Bodinco, Alkmaar, The Netherlands) and in the presence of penicillin/streptomycin Liffe Technologies, Carlsbad, Calif., USA under 5% CO2 at 37° C. […] After 72 h, the medium was removed, cells were washed trice with ice-cold PBS and harvested by scraping in 25 mM potassium-phosphate buffer, pH 6.5.
COS-7 cells overexpressing GBA2 and/or GCS were homogenized by sonication on ice. Prior to extraction, 2 pmol of ^13C-labelled GlcChol in methanol (used as an internal standard) was added to 180 μL of homogenate. Next, lipids were extracted according to the method of Bligh and Dyer by addition of methanol, chloroform and water (1:1:0.9, v/v/v) and the lower phase was taken to dryness under a stream of nitrogen. Isolated Is lipids were purified by water/butanol extraction (1:1, v/v) and 8-GlcChol was analyzed by LC-MS as described before.

The next assay concerns RAW 267 cells. Put plainly: GlcChol in RAW 267 cells exposed to U18666A. Format: cell-based. As to conditions: for increase of GlcChol in U18666A exposed cells: RAW 267 cells with U18666A, added agent present. The method, then:
FIG. 5C: GlcChol (pmol/mg protein) in RAW 267 cells incubated with indicated concentration U18666A for 1 day in absence and presence of conduri.tol B-epoxide (CBE) inhibiting GBA.
FIG. 5D: GlcChol (pmol/mg protein) in RAW 267 cells incubated with 10 uM U18666A for 1 day and in subsequent absence and presence of 1 mM β-methylcyclodextrin (β-mCD) reducing intralysosomal cholesterol.

For the next assay, the system named is type 1 GD mice. The experiment in a line: Treatment of mice with induced Gaucher disease with GCS inhibitor; plasma GlcCer and GlcChol. It is filed as in vivo. As to conditions: treated with GCS inhibitor. The source says: FIG. 2E: Plasma GlcChol (nM) in normal, type 1 GD mice untreated and treated with GENZ 112638.
As shown in FIG. 2A and FIG. 2B, the GlcChol concentration was markedly lower in tissues of GBA2-deficient animals, especially in thymus. In contrast, in the GBA-deficient LIMP-2 KO mice no reduction in GlcChol, but rather a small increase in levels was observed (FIG. 2A, 2B). An increase in GlcChol was also observed in liver of mice with an induced GBA deficiency in the white blood cell lineage (FIG. 2C). Efficient correction of GBA deficiency by gene therapy led to a concomitant reduction of GlcChol (FIG. 2C).
The following mice were used for investigation: GD1 mice in which GBA-deficiency was induced (31, 32); mice with spontaneous Niemann Pick Type C (33) and Npc1−/− mice (34); LIMP2−/− mice (35), and GBA2 −/− mice (22). Animals were sacrificed and tissue were immediately frozen and stored at −80° C.
For quantitative analysis of GlcChol in samples of plasma, we developed a LC-MS/MS method using the MRM mode of the transitions mentioned above. Firstly, GlcChol was extracted from plasma from a healthy individual according the method of Bligh and Dyer (28) with a few modifications. […]

Regarding `CCCCN1C[C@H](O)[C@@H](O)[C@H](O)[C@H]1CO` [Zavesca], in the assay on type 1 GD patients, the “plasma GlcChol following treatment” value is reported as “not”.
On to `OC[C@@H]1[C@@H](O)[C@H](O)[C@@H](O)CN1CCCCCOCC12CC3CC(CC(C3)C1)C2` [AMP-DNM, N-(5-adamantane-1-yl-methoxy-pentyl)-deoxynojirimycin], for which, in the assay on COS7 cells, the “increased cellular GlcChol level in cells with overexpressed GCS” value is on record as “the elevation in GlcChol was prevented”. In the assay with COS7 cells (COS7 cells, low nanomolar inhibitor, 2 days), the “cellular GlcChol” value is listed as “reduced cellular GlcChol”.
Consider `CCN(CC)CCO[C@H]1CC[C@@]2(C)C(=CC[C@@H]3[C@@H]2CC[C@]2(C)C(=O)CC[C@@H]32)C1` [U18666A], for which the “GlcChol in cells on induction of lysosomal cholesterol accumulation” value in the assay on RAW 267 cells (RAW 267 cells, 1 day) is recorded as “rapid increase”.
Regarding `CCCCCCCC(=O)N[C@H](CN1CCCC1)[C@H](O)c1ccc2c(c1)OCCO2` [GENZ 112638], in the assay on type 1 GD mice, the “elevated plasma GlcChol” value is reported as “minor, not statistically significant, reduction” and the “plasma GlcCer” value is “partial reduction”.
Turning to `O[C@H]1[C@H](O)[C@@H](O)[C@@H]2O[C@@H]2[C@@H]1O` (racemic) [CBE, Conduritol B epoxide], in the assay on COS7 cells, the “increased cellular GlcChol level in cells with overexpressed GCS” value is given as “did hardly diminish”. Besides, the “increase of GlcChol in U18666A exposed cells” value in the assay with RAW 267 cells is on record as “prevented completely”.
In the case of `CCCCCCCC(=O)N[C@H](CN1CCCC1)[C@H](O)c1ccc2c(c1)OCCO2` [Eliglustat], the “plasma GlcChol following treatment” value with type 1 GD patients is recorded as “prominent reduction”.
In the case of “β-methylcyclodextrin [B-methyl-cyclodextrin]”, the “increase of GlcChol in U18666A exposed cells” value in the assay with RAW 267 cells was “prevented”.
